According to patent US8466290B2, “STAT3 inhibitor containing quinolinecarboxamide derivative as active ingredient” (Pharma IP General Incorporated Association, priority 2008, dated 2013):
Like-named read-outs stand apart in the source and are kept apart here.

Columns and labels:
STAT3 = STAT3 transcription inhibition test (reporter gene method, oncostatin M stimulation); type: cell-based; conditions: compound at 100 μM, STAT3 reporter HeLa stable cell line, oncostatin M 10 ng/mL, 4 hours; for inhibition at 100 µM: Homo sapiens, read-out: STAT3 transcription inhibitory activity (%)
MDA-MB-435S = MDA-MB-435S cell growth inhibitory activity; type: cell-based; conditions: for inhibition at 20 µM: Homo sapiens, read-out: Cell growth inhibitory activity (%)
Description: […] Each well was washed three times with a medium. Then, after addition of 100 μL/well of a medium and 20 μL/well of CellTiter 96 AQueous One Solution Reagent (Promega Corp.), the cells were incubated at 37° C. for 2 hours in the presence of 5% CO2.

[1] = system: Human lymphoma SCC-3 cells; assay: SCC-3 cell growth inhibition test (MTT method); type: cell-based; conditions: 72-hour culture, read-out: Cell growth inhibitory activity (IC50: μM)
Description: Simultaneously with cell inoculation, each test compound diluted to various concentrations with an RPMI medium was added to each well.

[2] = system: human lymphoma SCC-3 cells; assay: Evaluation using human lymphoma-transplanted nude mice; conditions: SCC-3 cancer-bearing nude mice; for T/C (%): tumor volume ratio vs control
Description: 1×10^6 human lymphoma SCC-3 cells (containing Matrigel) were subcutaneously transplanted to the flank part of each 6-week-old male nude mouse (BALB/cA-nu/nu, CLEA Japan, Inc.). After the transplantation, the tumor volumes [major axis (mm) and minor axis (mm)] of the SCC-3 cancer-bearing mice were measured using an electronic vernier caliper (CD-10, Mitutoyo Corp.), and tumor volumes [mm^3: (major axis)x(minor axis)^2/2] were calculated. SCC-3 cancer-bearing mice whose tumor volume reached 50 to 300 mm^3 were selected and divided based on the tumor volumes into groups each containing 5 individuals. A test compound was suspended in a 0.5% methylcellulose solution and orally administered at a dose of 0.01 mL/g body weight once a day for 5 days (Day 0 (administration initiation day) to Day 4). To a control group, none was administered. The tumor volumes of the SCC-3 cancer-bearing mice were measured every day from the initiation of test compound administration to evaluate antitumor effect. The antitumor effect was assessed by calculating T/C (%) values according to the following formula:
V: tumor volume on every assay day
V0: tumor volume on the administration initiation day (V/V0 of the test compound group)/(V/V0 of the control group)×100

[3] = 40 mg/kg orally once a day for 5 days
[4] = 160 mg/kg orally once a day for 5 days

IC50 ([1]; Homo sapiens) [µM] | Structure (SMILES) | inhibition at 100 µM (STAT3) [%] | inhibition at 20 µM (MDA-MB-435S; compound at 20 μM, 72 hours) [%] | other results
2.2 | O=C(Nc1nnc(-c2ccco2)o1)c1cc(-c2ccc([N+](=O)[O-])cc2)nc2ccccc12 [Ia-52, N-[5-(2-furyl)-1,3,4-oxadiazol-2-yl]-2-(4-nitrophenyl)-4-quinolinecarboxamide] | > 100 | 68 | 
2 | O=C(Nc1nnc(-c2ccco2)o1)c1cc(-c2ccc(Cl)cc2)nc2ccccc12 [Ia-47, 2-(4-chlorophenyl)-N-[5-(2-furyl)-1,3,4-oxadiazol-2-yl]-4-quinolinecarboxamide] | > 100 | 82 | 
1.9 | O=C(Nc1nnc(-c2ccco2)o1)c1cc(-c2ccccc2)nc2cc(Br)ccc12 [Ia-24, 7-bromo-N-[5-(2-furyl)-1,3,4-oxadiazol-2-yl]-2-phenyl-4-quinolinecarboxamide] | 72 | 94 | 
0.7 | O=C(Nc1nnc(-c2ccco2)o1)c1cc(-c2ccccc2)nc2c(Cl)cc(Cl)cc12 [Ia-74, 6,8-dichloro-N-[5-(2-furyl)-1,3,4-oxadiazol-2-yl]-2-phenyl-4-quinolinecarboxamide] | 97 | 82 | 
2.2 | O=C(Nc1nnc(-c2ccco2)o1)c1cc(-c2ccccc2)nc2cc(Cl)ccc12 [Ia-72, 7-chloro-N-[5-(2-furyl)-1,3,4-oxadiazol-2-yl]-2-phenyl-4-quinolinecarboxamide] | > 100 |  | 
6 | Cc1cccc2c(C(=O)Nc3nnc(-c4ccco4)o3)cc(-c3ccccc3)nc12 [Ia-25, N-[5-(2-furyl)-1,3,4-oxadiazol-2-yl]-8-methyl-2-phenyl-4-quinolinecarboxamide] | 77 |  | 
1.9 | Cc1ccc2nc(-c3ccccc3)cc(C(=O)Nc3nnc(-c4ccco4)o3)c2c1 [Ia-70, N-[5-(2-furyl)-1,3,4-oxadiazol-2-yl]-6-methyl-2-phenyl-4-quinolinecarboxamide] | > 100 | > 100 | 
4.6 | N#Cc1ccc(-c2cc(C(=O)Nc3nnc(-c4ccco4)o3)c3ccccc3n2)cc1 [Ia-17, 2-(4-cyanophenyl)-N-[5-(2-furyl)-1,3,4-oxadiazol-2-yl]-4-quinolinecarboxamide] | 80 | 54 | 

Continued, molecule first:

Structure (SMILES) | IC50 ([1]; Homo sapiens) [µM] | inhibition at 100 µM (STAT3) [%] | inhibition at 20 µM (MDA-MB-435S; compound at 20 μM, 72 hours) [%] | other results
CC(C)(C)OC(=O)c1ccc(-c2cc(C(=O)Nc3nnc(-c4ccco4)o3)c3ccccc3n2)cc1 [Ia-53, 2-(4-tert-butoxycarbonylphenyl)-N-[5-(2-furyl)-1,3,4-oxadiazol-2-yl]-4-quinolinecarboxamide] | 0.7 | > 100 | 100 | 
O=C(Nc1nnc(-c2ccco2)o1)c1cc(-c2cccc3ccccc23)nc2ccccc12 [Ia-60, N-[5-(2-furyl)-1,3,4-oxadiazol-2-yl]-2-(1-naphthyl)-4-quinolinecarboxamide] | 2.1 | > 100 | 100 | 
O=C(Nc1nnc(-c2ccco2)o1)c1cc(-c2ccc(Cl)s2)nc2ccccc12 [Ia-19, 2-(5-chloro-2-thienyl)-N-[5-(2-furyl)-1,3,4-oxadiazol-2-yl]-4-quinolinecarboxamide] | 2.1 | 77 | 98 | 
O=C(Nc1nnc(-c2ccco2)o1)c1cc(-c2ccccc2)nc2ccc(OC(F)(F)F)cc12 [Ia-71, N-[5-(2-furyl)-1,3,4-oxadiazol-2-yl]-2-phenyl-6-trifluoromethoxy-4-quinolinecarboxamide] | 0.3 | > 100 |  | inhibition at 20 µM (MDA-MB-435S; 72 h): 85%
CC(C)(C)OC(=O)c1cccc(-c2cc(C(=O)Nc3nnc(-c4ccco4)o3)c3ccccc3n2)c1 [Ia-44, 2-(3-tert-butoxycarbonylphenyl)-N-[5-(2-furyl)-1,3,4-oxadiazol-2-yl]-4-quinolinecarboxamide] | 1.8 | > 100 | 99 | 
O=C(Nc1nnc(-c2ccco2)o1)c1cc(/C=C/c2ccccc2)nc2ccccc12 [Ia-65, N-[5-(2-furyl)-1,3,4-oxadiazol-2-yl]-2-trans-styryl-4-quinolinecarboxamide] |  |  |  | STAT3 transcription inhibitory activity (%) (STAT3): >100%; Cell growth inhibitory activity (%) (MDA-MB-435S; compound at 20 μM, 72 hours): 69%; IC50 [1]: 2.6 µM
O=C(Nc1nnc(-c2ccco2)o1)c1cc(-c2ccccc2)nc2ccccc12 [Ia-1, N-[5-(2-furyl)-1,3,4-oxadiazol-2-yl]-2-phenyl-4-quinolinecarboxamide] | 5.9 | 54 |  | inhibition at 20 µM (MDA-MB-435S; 72 h): 89%; The number of deaths [2, 3]: 0/5; T/C (%) [2, 3]: 38%; The number of deaths [2, 4]: 0/5; T/C (%) [2, 4]: 40%
Cc1ccc(-c2cc(C(=O)Nc3nnc(-c4ccccc4)o3)c3ccccc3n2)cc1 [Ia-i, N-(5-phenyl-1,3,4-oxadiazol-2-yl)-2-(4-tolyl)-4-quinolinecarboxamide] | 2.7 | 85 |  | 
O=C(Nc1nnc(-c2ccco2)o1)c1cc(-c2ccccc2)nc2ccc(Cl)cc12 [Ia-22, 6-chloro-N-[5-(2-furyl)-1,3,4-oxadiazol-2-yl]-2-phenyl-4-quinolinecarboxamide] | 0.9 | 76 | 98 | The number of deaths [2, 3]: 0/5; T/C (%) [2, 3]: 56%
CCCCOc1cc(C(=O)Nc2nnc(-c3ccco3)o2)c2ccccc2n1 [Ia-35, 2-(1-butoxy)-N-[5-(2-furyl)-1,3,4-oxadiazol-2-yl]-4-quinolinecarboxamide] | 5.6 | 57 |  | 
Cc1cc(C)c2nc(-c3cccs3)cc(C(=O)Nc3nnc(-c4ccco4)o3)c2c1 [Ia-33, N-[5-(2-furyl)-1,3,4-oxadiazol-2-yl]-6,8-dimethyl-2-(2-thienyl)-4-quinolinecarboxamide] | 1.3 | 58 | 79 | 
